Measured values from patent US10421722B2, “Sulfur-containing compounds targeting vesicular acetylcholine transporter” (Washington University, priority 2016, dated 2019).
Like-named read-outs stand apart in the source and are kept apart here.

Experiments:
[1] = target: human VAChT (Homo sapiens (Human), UniProt Q16572); test: VAChT binding, competition against [3H]Vesamicol; settings: oxalate form, expressed human VAChT, mean ± SEM
Description: (§1) In vitro binding studies were performed to measure the affinities to the VAChT and σ1 and σ2 receptors. VAChT binding was assayed using membrane homogenate from PC12 cells which overexpress human VAChT.^8 The σ1 and σ2 binding affinities were assayed in […], respectively.
The test compounds were assayed in increments of 10-fold from 0.1 to 10,000 nM concentration. The surfaces of containers were pre-coated with Sigmacote (Sigma-Aldrich, Mo.). Samples containing 200 μg postnuclear supernatant in 200 μL of 110 mM potassium tartrate, 20 mM HEPES (pH 7.4 with KOH), 1 mM dithiothreitol, and 0.02% sodium azide were incubated at 22° C. for 24 h. A volume of 90 μL was filtered in duplicate through GF/F glass fiber filters coated with polyethylenimine and washed. Filter-bound radioactivity was determined by liquid scintillation spectrometry for 10 min per sample. Averaged data were fitted by regression with a rectangular hyperbola to estimate Ki value. All the compounds were independently assayed at least two times.

[2] = target: σ2 receptor (Rattus norvegicus (Rat), UniProt Q5U3Y7); test: σ2 receptor binding, [3H]DTG; settings: for Ki: oxalate form, homogenates of rat liver; for Selectivity ratio VAChT/σ2: ratio of Ki values
σ2 receptor, sequence (Q5U3Y7 whole entry): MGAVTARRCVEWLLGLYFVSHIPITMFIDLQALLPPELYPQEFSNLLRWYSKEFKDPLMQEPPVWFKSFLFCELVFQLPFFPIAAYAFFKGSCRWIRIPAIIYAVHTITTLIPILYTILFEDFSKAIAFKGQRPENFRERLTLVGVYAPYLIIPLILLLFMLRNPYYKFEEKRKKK
Description: In vitro binding studies were performed to measure the affinities to the VAChT and σ1 and σ2 receptors. […]
(§2) Briefly, to measure the σ1 receptor binding affinity, we use guinea pig brain membrane homogenates (˜300 μg protein) tissues as the receptor resource and ˜5 nM [^3H](+)-Pentazocine (34.9 Ci/mmol, Perkin Elmer, Boston, Mass.) as the radioligand. The mixture was incubated in 96-well plates for 90 min at room temperature. Nonspecific binding was determined from samples containing 10 μM of nonradioactive Haloperidol. After 90 min, the mixture was transferred into a 96-well fiberglass filter plate (Millipore, Billerica, Mass.) presoaked with 100 μL of 50 mM Tris-HCl buffer at pH 8.0 for 60 min, followed by addition of 150 μL of ice-cold wash buffer (10 mM Tris-HCl, 150 mM NaCl, pH 7.4). The harvested samples were filtered rapidly and washed with 3×200 μL portions of ice-cold wash buffer, and the filterers were counted by a Wallac 1450 MicroBeta liquid scintillation counter (Perkin-Elmer, Boston, Mass.). […] The mixture was incubated for 120 min at room temperature. Nonspecific binding was determined from samples containing 10 μM of nonradioactive Haloperidol. All other procedures were similar to those described for the σ1 receptor binding assay above. Data from the competitive binding experiments were modeled using nonlinear regression analysis to determine the concentration that inhibits 50% of the specific binding of the radioligand. Competitive binding curves were best fit to a one-site fit and gave pseudo-Hill coefficients of 0.6-1.0. Ki values were calculated using the method of Cheng and Prusoff,^35 then presented as the mean±SEM.

[3] = target: σ1 receptor (Cavia porcellus (Guinea pig), UniProt Q60492); test: σ1 receptor binding, [3H](+)-Pentazocine; settings: for Ki: oxalate form, homogenates of guinea pig brain, mean ± SEM; for Selectivity ratio VAChT/σ1: ratio of Ki values
σ1 receptor, sequence (Q60492 whole entry): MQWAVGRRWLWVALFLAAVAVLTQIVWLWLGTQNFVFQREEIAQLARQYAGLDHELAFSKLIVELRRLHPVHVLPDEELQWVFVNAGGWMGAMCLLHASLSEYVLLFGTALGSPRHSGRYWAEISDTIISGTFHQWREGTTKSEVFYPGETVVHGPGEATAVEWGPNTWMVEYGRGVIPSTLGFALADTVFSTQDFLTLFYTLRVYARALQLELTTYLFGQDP
Description: as §1, §2

[4] = target: VAChT (Rattus norvegicus (Rat), UniProt Q62666); test: Ex vivo autoradiography of rat brain; type: in vivo, Sprague-Dawley rat
VAChT (Rattus norvegicus (Rat), UniProt Q62666), sequence (Q62666 whole entry): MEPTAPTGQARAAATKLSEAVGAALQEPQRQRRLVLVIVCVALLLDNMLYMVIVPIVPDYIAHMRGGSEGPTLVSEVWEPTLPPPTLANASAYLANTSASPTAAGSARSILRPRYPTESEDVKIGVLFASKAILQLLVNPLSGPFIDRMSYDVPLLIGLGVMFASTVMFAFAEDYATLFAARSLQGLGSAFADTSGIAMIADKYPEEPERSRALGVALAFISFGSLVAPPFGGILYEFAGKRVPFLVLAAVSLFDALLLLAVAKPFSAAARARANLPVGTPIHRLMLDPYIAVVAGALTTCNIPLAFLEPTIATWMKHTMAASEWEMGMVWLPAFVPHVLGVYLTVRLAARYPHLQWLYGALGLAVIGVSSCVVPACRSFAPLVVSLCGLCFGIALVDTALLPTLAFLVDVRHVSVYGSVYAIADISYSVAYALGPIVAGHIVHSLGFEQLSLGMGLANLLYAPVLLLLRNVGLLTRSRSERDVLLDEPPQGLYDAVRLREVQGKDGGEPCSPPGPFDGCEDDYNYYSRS
Description: Ex vivo autoradiography was performed on 6-8 month old male Sprague-Dawley rats to confirm the brain distribution of radiolabeled VAChT ligands. Mature male Sprague-Dawley rats were injected with ˜500 μCi of (−)-[^11C]3 or (−)-[^18F]9a via the tail vein under isoflurane/oxygen anesthesia, respectively. The rats were euthanized after 1 h and the brains were quickly removed and placed in a metal brain matrix with slots spaced at 1 mm intervals. The brains were then frozen in the matrix and sectioned into 100 μm coronal slices. Brain slices were carefully removed from the brain matrix razor blades and placed on a clear sheet covered with film and mounting on glass slides. Then, the brain sections were exposed to the film in an imaging cassette for 12 h before they were counted by the FLA7000. Photographic images were obtained using a flatbed scanner. […] There was also moderate uptake in other regions, which may be caused by the moderate binding activity to σ1 receptor. The quantification of autoradiography from entire 30 brain slices indicated the uptake ratio of radioactivity in striatum versus cerebellum reached 1.75 and 1.54, respectively. (FIGS. 6B and 6D)

[5] = test system: VAChT; settings: cynomolgus monkey, in vivo
Description: PET studies were performed on adult male cynomolgus monkeys (6-8 kg) with a MicroPET Focus 220 scanner (Concorde/CTI/Siemens Microsystems, Knoxville, Tenn.). The animal was anesthetized using an intramuscular injection with ketamine (10-20 mg/kg) and glycopyrrolate (0.013-0.017 mg/kg) and then transported to the PET scanner suit. After arrival, the animal was intubated with an endotracheal tube and anesthesia was maintained at 0.75-2.0% isoflurane/oxygen throughout the procedure, and then a percutaneous venous catheter was placed for radiotracer injection. A heated water blanket was used to keep the temperature at 37° C. In each MicroPET scanning session, the head was positioned supine in the adjustable head holder with the brain in the center of the field of view. A 10-min transmission scan was performed to check positioning; once confirmed, a 45 min transmission scan was obtained for attenuation correction. Subsequently, a 2 h dynamic emission scan was acquired after administration of 296-410 MBq of (−)-[^11C]3 or (−)-[^18F]9a via the venous catheter. PET scans were collected from 0-120 min with the following time frames: 3×1 min, 4×2 min, 3×3 min and 20×5 min. PET image reconstructed resolution was <2.0 mm full width half maximum for all 3 dimensions at the center of the field of view. Emission data were corrected using individual attenuation and model-based scatter correction and reconstructed using filtered back projection. The first baseline PET image for each animal acted as the target image with the MPRAGE and subsequent PETs co-registered using automated image registration program AIR. All MPRAGE-based volume of interest (VOI) analyses were accomplished by experienced investigators. For quantitative analyses, three-dimensional ROIs (striatum, cerebellum, frontal cortex, occipital cortex, temporal, midbrain, hippocampus and thalamus) were transformed to the baseline PET space and then overlaid on all reconstructed PET images to obtain time-activity curves. Activity measures were standardized to body weight and dose of radioactivity injected to yield standardized uptake value (SUV).

[6] = Table 1, read-out: Ki (nM) for VAChT
[7] = Table 2, read-out: Ki (nM) VAChT

human VAChT, sequence (Q16572 whole entry): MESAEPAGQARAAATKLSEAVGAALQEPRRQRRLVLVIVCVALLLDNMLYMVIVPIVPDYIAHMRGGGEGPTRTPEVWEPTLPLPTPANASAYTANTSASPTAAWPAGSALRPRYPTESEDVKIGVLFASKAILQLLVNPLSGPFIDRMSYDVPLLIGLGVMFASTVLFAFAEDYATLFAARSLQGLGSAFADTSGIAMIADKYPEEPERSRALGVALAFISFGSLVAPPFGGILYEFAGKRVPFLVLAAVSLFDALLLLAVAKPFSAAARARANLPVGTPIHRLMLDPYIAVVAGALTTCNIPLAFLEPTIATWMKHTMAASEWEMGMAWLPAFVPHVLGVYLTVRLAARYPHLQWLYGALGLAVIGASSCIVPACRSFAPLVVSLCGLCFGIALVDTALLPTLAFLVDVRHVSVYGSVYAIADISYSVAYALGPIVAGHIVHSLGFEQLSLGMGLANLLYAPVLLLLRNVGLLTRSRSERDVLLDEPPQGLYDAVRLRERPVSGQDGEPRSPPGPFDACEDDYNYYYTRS

Ki [1, 6] | Ki [2] | Selectivity ratio VAChT/σ2 [2] | Ki [3] | Selectivity ratio VAChT/σ1 [3] | Ki [1, 7] | SMILES | also measured
5.4 nM | > 1000 nM | >185 | 16.5 ± 2.1 nM | 3.1 | – | CS(=O)(=O)c1ccc(C(=O)C2CCN(C3Cc4ccccc4CC3O)CC2)cc1 (racemic) [Compound 2, (1-(3-Hydroxy-1,2,3,4-tetrahydronaphthalen-2-yl)piperidin-4-yl)(4 (methylsulfonyl)phenyl)methanone] | –
2.4 nM | > 1000 nM | >416 | 17.2 ± 4 nM | 7.2 | – | CSc1ccc(C(=O)C2CCN(C3Cc4ccccc4CC3O)CC2)cc1 (racemic) [Compound 3, (1-(3-Hydroxy-1,2,3,4-tetrahydronaphthalen-2-yl)piperidin-4-yl)(4-(methylthio)phenyl)methanone] | –
2.4 nM | > 1000 nM | >416 | 16.7 ± 2.1 nM | 7.0 | – | O=C(c1ccc(SCCF)cc1)C1CCN(C2Cc3ccccc3CC2O)CC1 (racemic) [Compound 9a, (4-((2-Fluoroethyl)thio)phenyl)(1-(3-hydroxy-1,2,3,4-tetrahydronaphthalen-2-yl)piperidin-4-yl)methanone] | –
2.3 nM | > 1000 nM | >434 | 40.8 ± 4.1 nM | 17.7 | – | O=C(c1ccc(SCCCF)cc1)C1CCN(C2Cc3ccccc3CC2O)CC1 (racemic) [Compound 9b, (4-((3-Fluoropropyl)thio)phenyl)(1-(3-hydroxy-1,2,3,4-tetrahydronaphthalen-2-yl)piperidin-4-yl)methanone] | –
– | > 1000 nM | >5 | 18.5 ± 3.4 nM | 0.1 | 193 ± 17.8 nM | CS(=O)(=O)c1ccc(C(=O)C2CCN([C@@H]3Cc4ccccc4C[C@H]3O)CC2)cc1 (single isomer, unassigned) [(+)-2] | –
– | > 1000 nM | >72 | 23.3 ± 2.9 nM | 1.7 | 13.8 ± 1.1 nM | CSc1ccc(C(=O)C2CCN([C@@H]3Cc4ccccc4C[C@H]3O)CC2)cc1 (single isomer, unassigned) [(+)-3] | –
– | > 1000 nM | >84 | 14.4 ± 2 nM | 1.2 | 11.8 ± 2.7 nM | O=C(c1ccc(SCCF)cc1)C1CCN([C@@H]2Cc3ccccc3C[C@H]2O)CC1 (single isomer, unassigned) [(+)-9a] | –
– | > 1000 nM | >50 | 38.6 ± 7.1 nM | 1.9 | 19.9 ± 9.2 nM | O=C(c1ccc(SCCCF)cc1)C1CCN([C@@H]2Cc3ccccc3C[C@H]2O)CC1 (single isomer, unassigned) [(+)-9b] | –
– | – | – | – | – | – | [11CH3]Sc1ccc(C(=O)C2CCN([C@@H]3Cc4ccccc4C[C@H]3O)CC2)cc1 (single isomer, unassigned) [(−)-[^11C]3] | uptake ratio of radioactivity in striatum versus cerebellum ([4]; 30 slices, 60 min post-injection, tail vein): 1.75; brain distribution of radioactivity (autoradiograms) ([4]; 1 h after injection): high accumulation in the VAChT enriched striatum; brain entry [5]: able to enter the NHP brain; maximum standardized uptake value (SUV) in striatum [5]: 4.0; regional brain accumulation [5]: highest accumulation in the striatal region; time at which striatal SUV reached maximum [5]: 10 min
– | – | – | – | – | – | O=C(c1ccc(SCCF)cc1)C1CCN([C@@H]2Cc3ccccc3C[C@H]2O)CC1 (single isomer, unassigned) [(−)-[^18F]9a] | Ki ([1]; Table 2, listed as (−)-[18F]9a, read-out: Ki (nM) VAChT): 2.2 nM
– | > 1000 nM | >243 | 34.7 ± 4.9 nM | 8.5 | 4.1 ± 0.9 nM | CS(=O)(=O)c1ccc(C(=O)C2CCN(C3Cc4ccccc4CC3O)CC2)cc1 (single isomer, unassigned; (-)) [(−)-2] | –
– | > 1000 nM | >714 | 19 ± 5.6 nM | 13.6 | 1.4 nM | CSc1ccc(C(=O)C2CCN(C3Cc4ccccc4CC3O)CC2)cc1 (single isomer, unassigned; (-)) [(−)-3] | –
– | > 1000 nM | >454 | 30.8 ± 4.1 nM | 13.4 | 2.2 nM | O=C(c1ccc(SCCF)cc1)C1CCN(C2Cc3ccccc3CC2O)CC1 (single isomer, unassigned; (-)) [(−)-9a] | –
– | > 1000 nM | >714 | 4.1 ± 0.7 nM | 2.9 | 1.4 nM | O=C(c1ccc(SCCCF)cc1)C1CCN(C2Cc3ccccc3CC2O)CC1 (single isomer, unassigned; (-)) [(−)-9b] | –
6.3 nM | – | – | – | – | – | CNS(=O)(=O)c1ccc(C(=O)C2CCN(C3Cc4ccccc4CC3O)CC2)cc1 (centres unmarked) [Compound 6a, 4-(1-(3-Hydroxy-1,2,3,4-tetrahydronaphthalen-2-yl)piperidine-4-carbonyl)-N-methylbenzenesulfon-amide] | –
13 nM | – | – | – | – | – | O=C(c1ccc(S(=O)(=O)NCCF)cc1)C1CCN(C2Cc3ccccc3CC2O)CC1 (centres unmarked) [Compound 6b, N-(2-fluoroethyl)-4-(1-(3-hydroxy-1,2,3,4-tetrahydronaphthalen-2-yl)piperidine-4-carbonyl)benzenesulfonamide] | –
12.8 ± 0.7 nM | – | – | – | – | – | O=C(c1ccc(S(=O)(=O)CCCF)cc1)C1CCN(C2Cc3ccccc3CC2O)CC1 (centres unmarked) [Compound 7, (4-((3-Fluoropropyl)sulfonyl)phenyl)(1-(3-hydroxy-1,2,3,4-tetrahydronaphthalen-2-yl)piperidin-4-yl)methanone] | –

SMILES | Ki [1, 6] | Ki [2] | Selectivity ratio VAChT/σ2 [2] | Ki [3] | Selectivity ratio VAChT/σ1 [3] | Ki [1, 7] | also measured
C[S+]([O-])c1ccc(C(=O)C2CCN(C3Cc4ccccc4CC3O)CC2)cc1 (centres unmarked) [Compound 4, (1-(3-Hydroxy-1,2,3,4-tetrahydronaphthalen-2-yl)piperidin-4-yl)(4-(methylsulfinyl)phenyl)methano-ne] | 6.5 nM | – | – | – | – | – | –
